Laboratory results reported in patent publication US11884638B2, “Compound or salt thereof, composition for cysteine detection, fluorescent probe and composition for diagnosing cancer containing the same, method for detecting cysteine, method for providing information for diagnosing cancer, and method for producing compound” (Industry-Academic Cooperation Group of Kyung Hee University, priority 2021, dated 2024).

Experiments:
[1] = Fluorescence emission of Compound 1 with cysteine added to non-pretreated urine; design: species or system human
Method: In order to confirm the reaction of Compound 1 with cysteine in urine, non-pretreated urine (198 μL) was treated with varying concentrations (1 to 120 ng/μL) of cysteine, and then treated with Compound 1 (100 μM). The resulting urines were stirred in a stirrer at 37° C. for 40 minutes, and the fluorescence spectra were measured (excitation wavelength: 488 nm). In addition, Compound 1 was used after dissolution in a DMSO solution at 10 mM, and the amount of DMSO in the final solvent condition was controlled to be the same for each container (less than 1%).
Specifically, a spectro-fluorophotometer (SHIMADZU Corp. RF-6000, Japan) was used to analyze the emission spectrum, and the glass cuvette used for fluorescence measurement was a standard quartz cell (internal volume=[…], Hellma Analytics, Jena, Germany) having a thickness of 1 cm on all sides. In addition, a chamber (WUV-L10, DAIHAN Scientific) capable of excitation at a wavelength of 365 nm was used to visually observe the fluorescence change.
When the urine was treated with compound 1 (100 μM) and cysteine (60 ng/μL or higher), fluorescence changes were visible without a separate fluorescence measurement device. Although fluorescence changes were not visible when the urine was treated with Compound 1 (100 μM) and cysteine (concentration of 10 ng/μL or lower), examination was made as to whether fluorescence changes in this treatment could be confirmed using a fluorescence measurement device (FIG. 1(b)). Referring to FIG. 1(b), significant fluorescence changes could be obtained in the presence of 1 ng/μL of cysteine in urine, and statistical data thereon are shown below.

[2] = Fluorescence spectral analysis of Compound 1 in urine derived from cervical cancer patients; design: species or system human; settings: Compound 1 100 μM, urines N=100 versus normal N=308, 37° C. 40 minutes
Method: Specifically, fluorescence spectral analysis was performed immediately after treatment of the urines with Compound 1 (black line). After stirring at 37° C. for 40 minutes, fluorescence spectral analysis was performed (red line). […]

[3] = Binding selectivity of Compound 1 to cysteine in urine by fluorescence change; settings: 37° C. 40 minutes, excitation 488 nm; for selectivity of fluorescence change among biomolecules detectable in urine: each biomolecule 100 μM (cysteine, glutathione, aspartic acid, glutamine, lysine, arginine, adenosine triphosphate, sucrose, ammonium), FIG. 2(b)
Method: Specifically, in order to determine whether Compound 1 selectively binds to cysteine in urine, cysteine and N-ethylmaleimide (NEM) (500 μM) capable of lowering cysteine concentration in urine were used. In addition, glutathione, aspartic acid, glutamine, lysine, arginine, adenosine triphosphate, sucrose, and ammonium used in the experiment were products obtained from TCI (Tokyo Chemical Industry Co., Ltd), Sigma Aldrich, and Alfa Company. The concentration of each biomolecule was equally measured at 100 μM. In addition, in order to obtain fluorescence spectra and values, Compound 1 and an unknown sample were stirred at 37° C. for 40 minutes and then excited at a wavelength of 488 nm.
The types of biomolecules indicated on the x-axis of FIG. 2(b) are as follows, and the following Probe 1 corresponds to Compound 1: • (A) Probe 1; • (B) Probe 1 with L-cysteine; • (C) Probe 1 with L-glutathione; • (D) Probe 1 with L-aspartic acid; • (E) Probe 1 with L-glutamine; • (F) Probe 1 with L-lysine; • (G) Probe 1 with L-arginine; • (H) Probe 1 with adenosine triphosphate; • (I) Probe 1 with sucrose; • (J) Probe 1 with ammonium.

[4] = Fluorescence spectral analysis of Compound 1 in urines from patients with other diseases including cancer; design: species or system human; settings: Compound 1 100 μM, 37° C. 40 minutes
Text: The urines used in the experiment were collected from urolithiasis patients (B, N=162), kidney cancer patients (C, N=162), prostate cancer patients (D, N=162), bladder cancer patients (E, N=162), cervical cancer patients (F, N=100), diabetic patients (G, N=100), pituitary cancer patients (H, N=100), adrenal cancer patients (I, N=100), lung cancer patients (J, N=100), ovarian cancer patients (K, N=100), pancreatic and biliary tract cancer patients (L, N=100), and pancreatic cancer patients (M, N=100). In the measurement method, each of the collected urine (198 μL) and Compound 1 (100 μM) were mixed together, the fluorescence spectra thereof were measured, and the highest fluorescence intensity value was taken. Then, each mixture was stirred at 37° C. for 40 minutes, and the highest fluorescence intensity value obtained from the fluorescence spectra was taken. The difference between the fluorescence intensity values before and after the reaction was shown as a bar graph.

- wavelength of fluorescence turn-on upon binding to cysteine ([1]; when bound to cysteine): ~550 nm
- fluorescence value in urine containing cysteine ([3]; FIG. 2(a)): high fluorescence value
- fluorescence value on co-treatment with N-ethylmaleimide which reduces cysteine ([3]; N-ethylmaleimide 500 μM, urine, FIG. 2(a)): fluorescence value decreased
SMILES: O=[N+]([O-])c1ccc(Oc2c(F)c(F)c(F)c(F)c2F)c2nonc12 [Compound 1, 4-nitro-7-(Perfluorophenoxy)benzo[c][1,2,5]oxadiazole]
- cysteine concentration at which fluorescence changes were visible without a separate fluorescence measurement device ([1]; normal urine, Compound 1 100 μM, 37° C. 40 minutes, excitation at 365 nm): ≥ 60 ng/µL
- cysteine concentration at which fluorescence changes were not visible ([1]; normal urine, Compound 1 100 μM, 37° C. 40 minutes, excitation at 365 nm, by eye): ≤ 10 ng/µL
- cysteine concentration in urine giving significant fluorescence changes using a fluorescence measurement device ([1]; urine, Compound 1 100 μM, 37° C. 40 minutes, excitation 488 nm): 1 ng/µL
- fluorescence values after reaction in urines derived from cervical cancer patients [2]: high fluorescence values
- selectivity of fluorescence change among biomolecules detectable in urine [3]: significant fluorescence change could be observed only for cysteine
- selectivity of fluorescence change among biomolecules detectable in urine ([3]; listed as 4-nitro-7-(perfluorophenoxy)benzo[c][1,2,5]oxadiazole): selectively detect cysteine in urine without interference of other biomolecules
- patient group with the largest fluorescence emission effect ([4]; cervical cancer patients (F) compared with the other patient groups): greatest in the case of cervical cancer patients
- fluorescence emission (difference of highest fluorescence intensity before and after reaction) in patient urines ([4]; urines of urolithiasis (B), cervical cancer (F), adrenal cancer (I), ovarian cancer (K), pancreatic and biliary tract cancer (L) patients): noticeable fluorescence emission was observed
